Patent US7217411B2, “CeSERT genes, proteins, and modulatory compounds” (Massachusetts Institute of Technology, priority 2000, dated 2007)
Several values for one entry are separate records, joined by “and”; a condition that tells them apart may be missing. Identical values can stand only once.

Key:
C. elegans [1] = assay: fluoxetine-induced nose contraction; assay type: in vivo; settings: 20 minutes
Description: This conclusion is consistent with the conclusion by Choy and Thomas (1999) that fluoxetine-mediated nose contraction is serotonin-independent, although their hypothesis was based on studies of cat-1(e1111) mutants, which are defective in signaling by several biogenic amines (Duerr et al., J Neurosci 19:72–84, 1999), and cat-4 mutants, which we found to not completely lack serotonin (FIG. 1B).

C. elegans [2] = assay: fluoxetine-induced paralysis (liquid locomotion assay); assay type: in vivo
Description: (Five trials with 20 animals of each genotype at each concentration and the animals were scored for paralysis after ten minutes.) There was no difference in the time-course of paralysis at any of the concentrations tested. These observations indicate that fluoxetine-induced paralysis in C. elegans is not caused by the lack of serotonin uptake from synapses. Fluoxetine-treated wild-type and mod-5(n3314) mutant animals assumed a rigid body posture. […] Serotonin has been proposed to decrease excitatory input to the locomotory muscles (Nurrish et al., Neuron 24:231–242, 1999).
(§1) The plates were allowed to dry at room temperature with their lids removed for more than 2 hours.
Animals to be tested for sensitivity or insensitivity to serotonin in this liquid locomotion assay were picked as L4 animals 16–20 hours prior to assay and the plates were coded so that the experimenter was blind to the genotype of the animals to be scored. On the day of the assay, serotonin (as a creatinine sulphate salt) was dissolved just before use, in M9, at the required concentrations, and 200 μl were aliquoted to the wells of a flat-bottomed 96-well polystyrene plate. […] Fluoxetine-induced paralysis was scored in a similar manner at 10 min.

C. elegans [3] = assay: egg-laying assay; assay type: in vivo
Description: Egg-laying assays were performed as described in Trent et al. (Genetics 104:619–647, 1983).

C. elegans [4] = assay: enhanced slowing response (locomotory rate of food-deprived animals on bacteria); assay type: in vivo
Description: as §1
For the experiment shown in FIG. 2, well-fed and food-deprived animals were transferred to assay plates with or without a bacterial lawn, and the locomotory rate of each animal was recorded after 5 min; food-deprived animals were transferred to plates without bacteria 30 min prior to the transfer to locomotory assay plates as is also described in Sawin et al. (Neuron 26:619–623, 2000). At least 10 trials were performed for each genotype for each condition. For FIG. 2, each trial involved testing at least five animals for each of the conditions; a given animal was tested in only one condition. p values were calculated by comparing the combined data for the mutants from all of the separate trials under one set of conditions to the combined data for the wild-type animals assayed in parallel under the same conditions. In FIG. 2B the data were obtained from three well-fed animals of each ablation state, seven mock-ablated and food-deprived animals, and 12 NSM-ablated and food-deprived animals. In FIG. 2D, serotonin dose-response curves for wild-type and mod-5 mutant animals were generated from averages of five trials with 20 animals of each genotype at each concentration in which animals were scored for movement after 5 min.
Alternatively, nematodes to be tested in a non-liquid locomotion assay were picked as L4 animals 16–20 hours prior to the assay. Locomotion was assayed by placing the nematode on an assay plate (prepared by spreading a solution of E. coli strain HB101 in NGM agar in 5 cm plates, using a ring with an inner diameter of approximately 1 cm and an outer diameter of approximately 3.5 cm, and allowing the bacteria to grow 13–15 hours at 37 C.), observing each nematode under a dissecting microscope for 20 seconds, and counting the number of dorsal-ventral bends that occurred in the anterior portion of the body during the interval.
To assay locomotion rates in food-deprived animals, 5–15 animals were removed from plates with ample food, washed twice in S-basal buffer, and transferred to 5 cm NGM agar plates without bacteria. Food-deprived animals were incubated on these plates for 30 minutes at room temperature, and then were transferred to assay plates. Locomotion rates were assayed as described above for satiated animals.

C. elegans [5] = settings: in vivo; cited from earlier work
MOD-5 CeSERT [6] = target: T1, MOD-5 CeSERT (Caenorhabditis elegans, UniProt Q963F3); assay: MOD-5-mediated [^3H]serotonin uptake in HEK293 cell lines stably expressing MOD-5; settings: for MOD-5-mediated uptake of radiolabeled neurotransmitter: 50 μM radiolabeled neurotransmitter vs 1 μM [^3H]serotonin; for transport of [^3H]serotonin by MOD-5, % of control: inhibitor 100 μM, [^3H]serotonin 50 nM
T1 sequence (Q963F3 1-671): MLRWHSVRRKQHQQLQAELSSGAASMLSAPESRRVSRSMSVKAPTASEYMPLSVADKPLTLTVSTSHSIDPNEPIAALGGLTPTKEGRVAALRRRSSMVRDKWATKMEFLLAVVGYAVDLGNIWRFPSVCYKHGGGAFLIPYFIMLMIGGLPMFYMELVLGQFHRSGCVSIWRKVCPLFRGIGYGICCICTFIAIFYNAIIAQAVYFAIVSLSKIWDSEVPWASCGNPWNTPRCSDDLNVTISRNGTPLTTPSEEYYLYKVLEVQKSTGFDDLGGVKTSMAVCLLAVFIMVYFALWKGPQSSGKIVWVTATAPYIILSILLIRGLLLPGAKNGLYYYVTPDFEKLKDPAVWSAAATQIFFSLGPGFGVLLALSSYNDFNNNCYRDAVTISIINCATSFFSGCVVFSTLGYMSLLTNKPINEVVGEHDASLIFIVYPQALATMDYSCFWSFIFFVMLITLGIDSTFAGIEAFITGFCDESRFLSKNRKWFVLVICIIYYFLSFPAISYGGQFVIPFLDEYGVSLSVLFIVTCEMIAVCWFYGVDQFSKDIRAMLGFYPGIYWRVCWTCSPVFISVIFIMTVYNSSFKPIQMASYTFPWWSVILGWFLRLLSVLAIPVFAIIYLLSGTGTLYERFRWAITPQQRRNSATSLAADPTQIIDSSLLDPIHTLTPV

C. elegans NSMs = assay: serotonin uptake in vivo, anti-serotonin staining of NSMs; settings: tph-1, 2 mM 5-HT for 2 hours, no fluoxetine
Description: For the anti-serotonin antisera experiments shown in FIG. 1B, mod-5(n823); cat-4 and cat-4; lin-15(n765ts) double mutants were grown at 20° C., and animals of both genotypes were incubated separately on plates containing 2 mM serotonin and bacteria (see Sawin et al. (Neuron 26:619–623, 2000) for details concerning how plates were prepared) for two hours and then incubated on plates with bacteria but without serotonin for 30 min. Controls without exogenous serotonin were similarly treated in parallel. Prior to fixation, mod-5(n823); cat-4 and cat-4; lin-15 double mutants preincubated on serotonin-containing plates were combined, and mod-5(n823); cat-4 and cat-4; lin-15 double mutants preincubated on control plates were combined. Serotonin staining was performed as described by Desai et al. (Nature 336:638–646, 1988) using affinity-purified rabbit polyclonal anti-serotonin antisera. The cat-4; lin-15 mutants were not defective in the uptake of serotonin and served as internal controls for each staining reaction. These animals could be distinguished from the test animals by the Multivulva phenotype caused by lin-15.

other SERTs = settings: read-out: Km range of serotonin transport reported for other SERTs; cited from earlier work
dSERT = target: T2, dSERT (Drosophila melanogaster, UniProt P51905); settings: inhibitor 200 μM, [^3H]serotonin 100 nM; cited from earlier work
T2 sequence (P51905 1-622): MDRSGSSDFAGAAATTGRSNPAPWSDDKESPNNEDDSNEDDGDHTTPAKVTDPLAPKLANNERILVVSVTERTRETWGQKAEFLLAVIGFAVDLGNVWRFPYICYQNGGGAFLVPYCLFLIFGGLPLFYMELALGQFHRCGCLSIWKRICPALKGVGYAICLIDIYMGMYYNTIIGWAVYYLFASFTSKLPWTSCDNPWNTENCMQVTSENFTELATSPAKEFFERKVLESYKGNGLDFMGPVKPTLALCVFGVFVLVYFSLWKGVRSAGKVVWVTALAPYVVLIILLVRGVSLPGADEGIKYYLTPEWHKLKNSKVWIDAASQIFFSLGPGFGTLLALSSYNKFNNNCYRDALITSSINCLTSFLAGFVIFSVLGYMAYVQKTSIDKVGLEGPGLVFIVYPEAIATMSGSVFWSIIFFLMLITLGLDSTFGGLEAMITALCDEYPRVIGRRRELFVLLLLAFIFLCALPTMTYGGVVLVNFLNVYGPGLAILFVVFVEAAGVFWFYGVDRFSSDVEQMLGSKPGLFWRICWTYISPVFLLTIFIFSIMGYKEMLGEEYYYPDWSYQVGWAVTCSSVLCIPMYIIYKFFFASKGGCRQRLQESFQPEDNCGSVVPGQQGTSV

MOD-5 CeSERT [7] = target: T1, MOD-5 CeSERT; assay: cell-based
[8] = substrate: NCCc1c[nH]c2ccc(O)cc12; assay: cells, lysate or membranes; settings: other: HEK293 GFPMOD-5 cells, Eadie-Hoftsee transformation; pH 7.4; 37.0 °C

For CNCCC(Oc1ccc(C(F)(F)F)cc1)c1ccccc1 (stereo not drawn) [fluoxetine], the “proportion of animals with contracted noses” value (“proportion of animals” for short) (C. elegans [1]; tph-1, 2.9 mM) was 100%, the “proportion of animals” value (C. elegans [1]; wild-type and mod-5(n3314), 1.5 mM) was “approximately 25%” and the “proportion of animals” value (C. elegans [1]; wild-type and mod-5(n3314), 2.9 mM) was 100%. For the same molecule, the “paralysis induced by fluoxetine treatment” value (C. elegans [2]; mod-5(n3314) mutants vs wild-type, scored after ten minutes) was “retained wild-type sensitivity to fluoxetine”, the “paralysis induced by fluoxetine treatment” value (C. elegans [2]; tph-1 mutants vs wild-type) was “paralyzed tph-1 mutants to a similar extent as wild-type animals” and the stimulation of egg-laying (C. elegans [3]; cat-4 mutants) was “completely resistant”. The stimulation of egg-laying (C. elegans [3]; egl-1(n1084) mutants (lack HSNs)) was “no effect on egg-laying”, the stimulation of egg-laying (C. elegans [3]; mod-5(n3314) mutants, 1.5 mM fluoxetine) was “stimulated to lay eggs to nearly the same extent as was the wild-type” and the stimulation of egg-laying (C. elegans [3]; tph-1 mutants) was “partially resistant”. The “potentiation of the enhanced slowing response” value (from here on “potentiation”) (C. elegans [4]; bas-1, cat-4 mutants preincubated with 2 mM serotonin) was “exhibited a potentiated enhanced slowing response”, the “potentiation” value (C. elegans [4]; mod-1(ok103) mutants) was “potentiated by fluoxetine” and the “potentiation” value (C. elegans [4]; mod-5(n3314), mod-1(ok103) double mutants) was “completely resistant”. For the same molecule, the “potentiation” value (C. elegans [4]; wild-type, food-deprived in 0.22 mM fluoxetine) was “slow their locomotory rate more” and the “concentrations leading to paralysis, contraction of nose muscles, stimulation of egg-laying” value (C. elegans [5]) was 0.25–1 mg/ml and 0.7–2.9 mM.

With N[C@@H](CCC(=O)O)C(=O)O [glutamate] the “MOD-5-mediated uptake of radiolabeled neurotransmitter” value (“MOD-5-mediated uptake” for short) (MOD-5 CeSERT [6]) was “inefficient at translocating”.

For NCCCC(=O)O [GABA, gamma-aminobutyric acid], the “MOD-5-mediated uptake” value (MOD-5 CeSERT [6]) was “inefficient at translocating”.

For NCCc1c[nH]c2ccc(O)cc12 [serotonin], the “% Serotonin-positive NSMs” value (C. elegans NSMs; mod-5(n3314)) is listed as 0%, the “% Serotonin-positive NSMs” value (C. elegans NSMs) is listed as 98% and the Km (other SERTs) is listed as 0.28 to 0.63 µM. For the same molecule, the “Vmax of MOD-5-mediated [^3H]serotonin transport” value (MOD-5 CeSERT [6]; HEK293 GFPMOD-5 cells) was 8.31×10^−9 nmoles per cell per min.

For NC[C@H](O)c1ccc(O)c(O)c1 [NE, norepinephrine], the “MOD-5-mediated uptake” value (MOD-5 CeSERT [6]) was “inefficient at translocating”.

For NCCc1ccc(O)cc1 [tyramine], the “dSERT-mediated transport of [^3H]serotonin, % of control” value (dSERT) is given as 95%±15% and the “transport of [^3H]serotonin by MOD-5, % of control” value (MOD-5 CeSERT [6]) is given as 54%±10%.

In the case of NCCc1c[nH]cn1 [histamine], the “MOD-5-mediated uptake” value (MOD-5 CeSERT [6]) is reported as “inefficient at translocating”.

For COC(=O)[C@H]1[C@@H](OC(=O)c2ccccc2)C[C@@H]2CC[C@H]1N2C [cocaine], the Ki (MOD-5 CeSERT [7]) was 4.08 ± 0.349 µM.

In the case of CN(C)CCCN1c2ccccc2CCc2ccccc21 [imipramine], the Ki (MOD-5 CeSERT [7]) is reported as 0.089 ± 0.058 µM.

In the case of NCCc1ccc(O)c(O)c1 [dopamine], the “MOD-5-mediated uptake” value (MOD-5 CeSERT [6]) is reported as “inefficient at translocating”.

In the case of NCC(O)c1ccc(O)cc1 (stereo not drawn) [octopamine], the “dSERT-mediated transport of [^3H]serotonin, % of control” value (dSERT) is given as 82%±15% and the “transport of [^3H]serotonin by MOD-5, % of control” value (MOD-5 CeSERT [6]) is given as 86%±12%.

B1: MOD-5 CeSERT (Caenorhabditis elegans) (protein)
chain: MLRWHSVRRKQHQQLQAELSSGAASMLSAPESRRVSRSMSVKAPTASEYMPLSVADKPLTLTVSTSHSIDPNEPIAALGGLTPTKEGRVAALRRRSSMVRDKWATKMEFLLAVVGYAVDLGNIWRFPSVCYKHGGGAFLIPYFIMLMIGGLPMFYMELVLGQFHRSGCVSIWRKVCPLFRGIGYGICCICTFIAIFYNAIIAQAVYFAIVSLSKIWDSEVPWASCGNPWNTPRCSDDLNVTISRNGTPLTTPSEEYYLYKVLEVQKSTGFDDLGGVKTSMAVCLLAVFIMVYFALWKGPQSSGKIVWVTATAPYIILSILLIRGLLLPGAKNGLYYYVTPDFEKLKDPAVWSAAATQIFFSLGPGFGVLLALSSYNDFNNNCYRDAVTISIINCATSFFSGCVVFSTLGYMSLLTNKPINEVVGEHDASLIFIVYPQALATMDYSCFWSFIFFVMLITLGIDSTFAGIEAFITGFCDESRFLSKNRKWFVLVICIIYYFLSFPAISYGGQFVIPFLDEYGVSLSVLFIVTCEMIAVCWFYGVDQFSKDIRAMLGFYPGIYWRVCWTCSPVFISVIFIMTVYNSSFKPIQMASYTFPWWSVILGWFLRLLSVLAIPVFAIIYLLSGTGTLYERFRWAITPQQRRNSATSLAADPTQIIDSSLLDPIHTLTPV
For B1, the Km [8] was 0.15 ± 0.008 µM.
